# Test system: HCV 1b-377-neo replicon cells
# Experiment: HCV replicon assay, HCV 1b-377-neo replicon cells (1b FRET)
# Format: cell-based, Hepatitis C virus genotype 1b
# Details: HCV 1b-377-neo replicon cells; HCV 1b genotype; read-out: EC50 range against HCV 1b (Table 2, Range)
# Method in brief: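 Compounds tested in HCV genotype 1b-377-neo replicon cells with a FRET read-out. Cells resistant to a reference NS5A inhibitor through a Y2065H NS5A mutation were run alongside wild-type cells.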
row,Structure (SMILES),EC50 [nM]
1,"COC(=O)N[C@@H](C(=O)N1CCC[C@H]1c1ncc(-c2ccc(-c3ccc(-c4cnc([C@@H]5CCCN5C(=O)[C@H](C)NC(C)=O)[nH]4)cc3)cc2)[nH]1)c1ccccc1 [Example 54, methyl ((1R)-2-((2S)-2-(5-(4′-(2-((2S)-1-(N-acetyl-L-ananyl)-2-pyrrolidinyl)-1H-imidazol-5-yl)-4-biphenylyl)-1H-imidazol-2-yl)-1-pyrrolidinyl)-2-oxo-1-phenylethyl)carbamate]",0.001 to 0.999
2,"CCC[C@H](NC(=O)OC)C(=O)N1CCC[C@H]1c1ncc(-c2ccc(-c3ccc(-c4cnc([C@@H]5CCCN5C(=O)[C@H](CCC)NC(=O)OC)[nH]4)cc3)cc2)[nH]1 [Example M27, methyl ((1S)-1-(((2S)-2-(5-(4′-(2-((2S)-1-((2S)-2-((methoxycarbonyl)amino)pentanoyl)-2-pyrroldinyl)-1H-imidazol-5-yl)-4-biphenylyl)-1H-imidazol-2-yl)-1-pyrrolidinyl)carbonyl)butyl)carbamate]",1 to 99
3,CCN(CC)[C@@H](C(=O)N1CCC[C@H]1c1ncc(-c2ccc(-c3ccc(-c4cnc([C@@H]5CCCN5C(=O)[C@@H](NC(=O)OC)C(C)C)[nH]4)cc3)cc2)[nH]1)C(C)(C)C [Example M91x],1 to 99
4,"CCN(CC)[C@@H](C(=O)N1CCC[C@H]1c1ncc(-c2ccc(-c3ccc(-c4cnc([C@@H]5CCCN5C(=O)[C@@H]5CCCO5)[nH]4)cc3)cc2)[nH]1)c1ccccc1 [Example 106, (1R)-N,N-diethyl-2-oxo-1-phenyl-2-((2S)-2-(5-(4′-(2-((2S)-1-((2S)-tetrahydro-2-furanylcarbonyl)-2-pyrrolidinyl)-1H-imidazol-5-yl)-4-biphenylyI)-1H-imidazol-2-yl)-1-pyrrolidinyl)ethanamine]",0.001 to 0.999

# Same assay, conditions: Hepatitis C virus, HCV 1b-377-neo replicon cells; HCV 1b genotype; read-out: EC50 range against HCV 1b (Table 2, Range)
row,Structure (SMILES),EC50 [nM]
1,"O=C(c1ccc(N2CCOCC2)cc1)N1CCC[C@H]1c1ncc(-c2ccc(-c3ccc(-c4cnc([C@@H]5CCCN5C(=O)[C@@H](c5ccccc5)N5CCCCC5)[nH]4)cc3)cc2)[nH]1 [Example 107-10, 4-(4-(((2S)-2-(5-(4′-(2-((2S)-1-((2R)-2-phenyl-2-(1-piperidinyl)acetyl)-2-pyrrolidinyl)-1H-imidazol-5-yl)-4-biphenylyl)-1H-imidazol-2-yl)-1-pyrrolidinyl)carbonyl)phenyl) morpholine]",0.001 to 0.999
2,"CCN(CC)[C@@H](C(=O)N1CCC[C@H]1c1ncc(-c2ccc(-c3ccc(-c4cnc([C@@H]5CCCN5C(=O)C[C@@H](Cc5ccsc5)NC(=O)OC)[nH]4)cc3)cc2)[nH]1)c1ccccc1 [cj-55, methyl ((1R)-3-((2S)-2-(5-(4′-(2-((2S)-1-((2R)-2-(diethylamino)-2-phenylacetyl)-2-pyrrolidinyl)-1H-imidazol-5-yl)-4-biphenylyl)-1H-imidazol-2-yl)-1-pyrrolidinyl)-3-oxo-1-(3-thienylmethyl)propyl)carbamate]",0.001 to 0.999
3,"CN(C)[C@@H](C(=O)N1CCC[C@H]1c1ncc(-c2ccc(-c3cnc(-c4cnc([C@@H]5CCCN5C(=O)[C@@H](c5ccccc5)N(C)C)[nH]4)cn3)cc2)[nH]1)c1ccccc1 [Example 152j-7, (1R)-2-((2S)-2-(5-(5-(4-(2-((2S)-1-((2R)-2-(dimethylamino)-2-phenylacetyl)-2-pyrrolidinyl)-1H-imidazol-5-yl)phenyl)-2-pyrazinyl)-1H-imidazol-2-yl)-1-pyrrolidinyl)-N,N-dimethyl-2-oxo-1-phenylethanamine]",1 to 99
4,"COC(=O)N[C@H](CC(=O)N1CCC[C@H]1c1ncc(-c2ccc(-c3ccc(-c4cnc([C@@H]5CCCN5C(=O)C[C@H](Cc5cccs5)NC(=O)OC)[nH]4)cc3)cc2)[nH]1)Cc1cccs1 [cj-136, dimethyl (4,4′-biphenyldiylbis(1H-imidazole-5,2-diyl(2S)-2,1-pyrrolidinediyl((2R)-4-oxo-1-(2-thienyl)-4,2-butanediyl)))biscarbamate]",0.001 to 0.999
5,"COC(=O)N[C@@H](C)C(=O)N1CCC[C@H]1c1ncc(-c2ccc(-c3ccc(-c4cnc([C@@H]5CCCN5C(=O)[C@@H](Nc5cccnc5)C(C)C)[nH]4)cc3)cc2)[nH]1 [cj-20a, methyl ((1S)-1-methyl-2-oxo-2-((2S)-2-(5-(4′-(2-((2S)-1-(N-3-pyridinyl-L-valyl)-2-pyrrolidinyl)-1H-imidazol-5-yl)-4-biphenylyl)-1H-imidazol-2-yl)-1-pyrrolidinyl)ethyl)carbamate]",0.001 to 0.999
6,"CN1CCN(C(=O)N[C@@H](C(=O)N2CCC[C@H]2c2ncc(-c3ccc(-c4ccc(-c5cnc([C@@H]6CCCN6C(=O)[C@@H]6CCCO6)[nH]5)cc4)cc3)[nH]2)c2ccccc2)CC1 [Example 117, 4-methyl-N-((1R)-2-oxo-1-phenyl-2-((2S)-2-(5-(4′-(2-((2S)-1-((2S)-tetrahydro-2-furanylcarbonyl)-2-pyrrolidinyl)-1H-imidazol-5-yl)-4-biphenylyl)-1H-imidazol-2-yl)-1-pyrrolidinyl)ethyl)-1-piperazinecarboxamide]",0.001 to 0.999
7,"COC(=O)N[C@@H](C(=O)N(C)[C@@H](C)c1ncc(-c2ccc(-c3ccc(-c4cnc([C@H](C)N(C)C(=O)[C@H](NC(=O)OC)c5ccccc5)[nH]4)cc3)cc2)[nH]1)c1ccccc1 [Example 24-18-1, dimethyl (4,4′-biphenyldiylbis(1H-imidazole-5,2-diyl(1S)-1,1-ethanediyl(methylimino)((1R)-2-oxo-1-phenyl-2,1-ethanediyl)))biscarbamate]",0.001 to 0.999
8,"COC(=O)N[C@H](C(=O)N1CCC[C@H]1c1ncc(-c2ccc(-c3ccc(-c4[nH]c([C@@H]5CCCN5C(=O)[C@@H](NC(=O)OC)C5CC5)nc4C(F)(F)F)cc3)cc2)[nH]1)C1CC1 [Example J41, methyl ((1S)-1-cyclopropyl-2-((2S)-2-(5-(4′-(2-((2S)-1-((2S)-2-cyclopropyl-2-((methoxycarbonyl)amino)acetyl)-2-pyrrolidinyl)-1H-imidazol-5-yl)-4-biphenylyl)-4-(trifluoromethyl)-1H-imidazol-2-yl)-1-pyrrolidinyl)-2-oxoethyl)carbamate]",0.001 to 0.999
9,"COC(=O)N[C@@H](Cc1ccccn1)C(=O)N1CCC[C@H]1c1ncc(-c2ccc(-c3ccc(-c4cnc([C@@H]5CCCN5C(=O)[C@@H](NC(=O)OC)C(C)C)[nH]4)cc3)cc2)[nH]1 [cj-65, methyl ((1S)-1-(((2S)-2-(5-(4′-(2-((2S)-1-((2S)-2-((methoxycarbonyl)amino)-3-(2-pyridinyl)propanoyl)-2-pyrrolidinyl)-1H-imidazol-5-yl)-4-biphenylyl)-1H-imidazol-2-yl)-1-pyrrolidinyl)carbonyl)-2-methylpropyl)carbamate]",0.001 to 0.999
10,"CC(=O)OC(C(=O)N1CCC[C@H]1c1ncc(-c2ccc(-c3ccc(-c4cnc([C@@H]5CCCN5C(=O)[C@@H](c5ccccc5F)N(C)C)[nH]4)cc3)cc2)[nH]1)c1ccccc1 (stereo in doubt) [Example 107-33, (1R)-2-((2S)-2-(5-(4′-(2-((2S)-1-((2R)-2-(dimethylamino)-2-(2-fluorophenyl)acetyl)-2-pyrrolidinyl)-1H-imidazol-5-yl)-4-biphenylyl)-1H-imidazol-2-yl)-1-pyrrolidinyl)-2-oxo-1-phenylethyl acetate]",0.001 to 0.999
11,"COC(=O)N[C@@H](C(=O)N1CCC[C@H]1c1ncc(-c2ccc(-c3ccc(-c4cnc([C@@H]5CCCN5C(=O)C(c5cccs5)N(C)C)[nH]4)cc3)cc2)[nH]1)c1ccccc1 (stereo partly drawn) [Example 84-46, methyl ((1R)-2-((2S)-2-(5-(4′-(2-((2S)-1-((dimethylamino)(2-thienyl)acetyl)-2-pyrrolidinyl)-1H-imidazol-5-yl)-4-biphenylyl)-1H-imidazol-2-yl)-1-pyrrolidinyl)-2-oxo-1-phenylethyl)carbamate]",0.001 to 0.999
12,"COC(=O)N[C@@H](C(=O)N1CCC[C@H]1c1ncc(-c2ccc(-c3ccc(-c4cnc([C@@H]5CCCN5C(=O)[C@H](NC(=O)OC)c5ccccc5)[nH]4)nn3)nn2)[nH]1)c1ccccc1 [Example 153c-2, dimethyl (3,3′-bipyridazine-6,6′-diylbis(1H-imidazole-5,2-diyl(2S)-2,1-pyrrolidinediyl((1R)-2-oxo-1-phenyl-2,1-ethanediyl)))biscarbamate]",1 to 99
13,"CO[C@@H](C(=O)N1CCC[C@H]1c1ncc(-c2ccc(-c3ccc(-c4cnc([C@@H]5CCCN5C(=O)[C@@H](c5ccccc5)N5CCCCC5)[nH]4)cc3)cc2)[nH]1)c1ccccc1 [Example 107-19, 1-((1R)-2-((2S)-2-(5-(4′-(2-((2S)-1-((2R)-2-methoxy-2-phenylacetyl)-2-pyrrolidinyl)-1H-imidazol-5-yl)-4-biphenylyl)-1H-imidazol-2-yl)-1-pyrrolidinyl)-2-oxo-1-phenylethyl) piperidine]",0.001 to 0.999
14,"COC(=O)N[C@@H](C)C(=O)N1CCC[C@H]1c1ncc(-c2ccc(-c3ccc(-c4cnc([C@@H]5CCCN5C(=O)[C@H](Cc5cn(Cc6ccccc6)cn5)NC(=O)OC)[nH]4)cc3)cc2)[nH]1 [cj-77, methyl ((1S)-2-((2S)-2-(5-(4′-(2-((2S)-1-((2S)-3-(1-benzyl-1H-imidazol-4-yl)-2-((methoxycarbonyl)amino)propanoyl)-2-pyrrolidinyl)-1H-imidazol-5-yl)-4-biphenylyl)-1H-imidazol-2-yl)-1-pyrrolidinyl)-1-methyl-2-oxoethyl)carbamate]",0.001 to 0.999
15,"COC(=O)N[C@@H](C(=O)N1CCC[C@H]1c1ncc(-c2ccc(-c3ccc(-c4cnc([C@@H]5CCCN5C(=O)C5CC5)[nH]4)cc3)cc2)[nH]1)c1ccccc1 [Example 33, methyl ((1R)-2-((2S)-2-(5-(4′-(2-((2S)-1-(cyclopropylcarbonyl)-2-pyrrolidinyl)-1H-imidazol-5-yl)-4-biphenylyl)-1H-imidazol-2-yl)-1-pyrrolidinyl)-2-oxo-1-phenylethyl)carbamate]",0.001 to 0.999
16,"COC(=O)N[C@@H](C(=O)N1CCC[C@H]1c1ncc(-c2ccc(-c3ccc(-c4cnc([C@@H]5CCCN5C(=O)[C@@H](c5ccccc5)N(C)C)[nH]4)cc3)cc2)[nH]1)c1ccccc1Cl [Example 107-40, methyl ((1R)-1-(2-chlorophenyl)-2-((2S)-2-(5-(4′-(2-((2S)-1-((2R)-2-(dimethylamino)-2-phenylacetyl)-2-pyrrolidinyl)-1H-imidazol-5-yl)-4-biphenylyl)-1H-imidazol-2-yl)-1-pyrrolidinyl)-2-oxoethyl) carbamate]",0.001 to 0.999

# From patent US8574563B2 (Bristol-Myers Squibb Company, priority 2006, dated 2013)
